Where “and” joins values, the source holds several entries; their conditions need not be identical. Equal entries are not always repeated. Marks after values point to notes of the source that are not given here.
Tests used:
patients with OAB = assay: Phase 2b cardiovascular safety: orthostatic AEs, HR and BP changes; assay type: in vivo, human
From the text: None led to discontinuation. The overall incidence of orthostatic symptoms was low.
Small differences in the percent of subjects exceeding categorical heart rate and blood pressure thresholds for vibegron were similar to those in the tolterodine arm.

[1] = Dose-Cmax and dose-AUC models and simulations from Phase 1 data; design: species or system human
Procedure: Exposure, and therefore risk of adverse-events can be further reduced with a 50 mg dose.

QTc interval = details: human, in vivo, 400 mg
[2] = PK in patients with renal impairment; details: for AUC0-inf, geometric least squares mean / Apparent terminal t1/2, geometric mean (% geometric CV) / CL/F, geometric least squares mean / CLR, geometric mean (% geometric CV) / Cmax, geometric least squares mean / Fe[urine]48 hr, geometric mean (% geometric CV) / Tmax (median): single dose 100 mg
From the text: The relationship between clearance and renal function was modeled using linear regression.

[3] = PK in patients with moderate hepatic impairment; details: single dose 100 mg
[4] = vibegron 50 mg, 3 consecutive post-baseline visits
[5] = vibegron 100 mg, 3 consecutive post-baseline visits
[6] = healthy matched control subjects

O=C(Nc1ccc(C[C@@H]2CC[C@H]([C@H](O)c3ccccc3)N2)cc1)[C@@H]1CCc2nccc(=O)n21 [Vibegron, (6S)—N-[4-[[(2S,5R)-5-[(R)-hydroxy(phenyl)methyl]pyrrolidin-2-yl]methyl]phenyl]-4-oxo-7,8-dihydro-6H-pyrrolo[1,2-a]pyrimidine-6-carboxamide]
SBP change from baseline ≥10 bpm, subjects (patients with OAB; [4]): (9.7) %
SBP change from baseline ≥15 bpm, subjects (patients with OAB; [4]): (2.1) %
DBP change from baseline, mean (week 1) (patients with OAB; vibegron 100 mg): −0.69 mm Hg
DBP change from baseline, mean maximum (week 1 to 8) (patients with OAB; vibegron 100 mg): 4.80 mm Hg
HR change from baseline, mean (week 1) (patients with OAB; vibegron 100 mg): 0.35 bpm
HR change from baseline, mean maximum (week 1 to 8) (patients with OAB; vibegron 100 mg): 6.12 bpm
SBP change from baseline, mean (week 1) (patients with OAB; vibegron 100 mg): −0.77 mm Hg
SBP change from baseline, mean maximum (week 1 to 8) (patients with OAB; vibegron 100 mg): 6.51 mm Hg
subjects with orthostatic related AEs (patients with OAB; vibegron 100 mg group): 1.1%
DBP change from baseline ≥5 mm Hg, subjects (patients with OAB; [5]): (13.1) %
DBP change from baseline ≥10 bpm, subjects (patients with OAB; [5]): (3.4) %
HR change from baseline ≥5 bpm, subjects (patients with OAB; [5]): (11.8) %
HR change from baseline ≥10 bpm, subjects (patients with OAB; [5]): (3.0) %
HR change from baseline ≥15 bpm, subjects (patients with OAB; [5]): (0.4) %
SBP change from baseline ≥5 mm Hg, subjects (patients with OAB; [5]): (11.8) %
SBP change from baseline ≥10 bpm, subjects (patients with OAB; [5]): (4.2) %
SBP change from baseline ≥15 bpm, subjects (patients with OAB; [5]): (1.3) %
higher Cmax in elderly and females than healthy young males [1]: 50-70%
reduction in Cmax ([1]; dose decreased from 100 mg to 75 mg): ~40%
AUC of 75 mg lower than 200 mg single dose ([1]; estimation): ~2 fold
AUC of 75 mg lower than 400 mg single dose ([1]; estimation): ~6 fold
Cmax of 75 mg lower than 200 mg single dose ([1]; estimation): approximately 3.3 fold
Cmax of 75 mg lower than 400 mg single dose ([1]; estimation): ~9.2 fold
increase in Cmax ([1]; increase in dose from 50 to 100 mg): ~3 fold
higher exposure ([1]; subjects receiving a potent CYP3A/P-gp inhibitor): ~2 fold
mean increase in AUC vs normal renal function ([1]; subjects with moderate renal impairment): 1.6 fold
AUC, mean ± SD (QTc interval): 6800 ± 2300 ng·h/mL
AUC0-inf higher than healthy matched controls ([2]; mild renal impairment): 49%
CLR reduced compared to healthy matched controls ([2]; mild renal impairment): 39%
Cmax higher than healthy matched controls ([2]; mild renal impairment): 96%
AUC0-inf higher than healthy matched controls ([2]; moderate renal impairment): 106%
CLR reduced compared to healthy matched controls ([2]; moderate renal impairment): 65%
Cmax higher than healthy matched controls ([2]; moderate renal impairment): 68%
AUC0-inf higher than healthy matched controls ([2]; severe renal impairment): 83%
CLR reduced compared to healthy matched controls ([2]; severe renal impairment): 82%
Cmax higher than healthy matched controls ([2]; severe renal impairment): 42%
AUC0-inf, geometric least squares mean [2, 6]: 1540 ng·h/mL
Apparent terminal t1/2, geometric mean (% geometric CV) [2, 6]: 98.8 (13.9) hr
CL/F, geometric least squares mean [2, 6]: 64.9 L/h
CLR, geometric mean (% geometric CV) [2, 6]: 10.4 (20.2) L/hr
Cmax, geometric least squares mean [2, 6]: 107 ng/mL
Fe[urine]48 hr, geometric mean (% geometric CV) [2, 6]: 7.9% and 7.9 (43.0) %
Apparent terminal t1/2, geometric mean (% geometric CV) ([2]; mild renal impairment): 96.2 (11.5) hr
CL/F, geometric least squares mean ([2]; mild renal impairment): 43.6 L/h
CLR, geometric mean (% geometric CV) ([2]; mild renal impairment): 6.3 (31.1)^c L/hr
Cmax, geometric least squares mean ([2]; mild renal impairment): 210 ng/mL
Fe[urine]48 hr, geometric mean (% geometric CV) ([2]; mild renal impairment): 8.5% and 8.5 (43.9)^c %
AUC0-inf, geometric least squares mean ([2]; moderate renal impairment): 3170 ng·h/mL
Apparent terminal t1/2, geometric mean (% geometric CV) ([2]; moderate renal impairment): 108 (21.0) hr
CL/F, geometric least squares mean ([2]; moderate renal impairment): 31.5 L/h
CLR, geometric mean (% geometric CV) ([2]; moderate renal impairment): 3.6 (34.5) L/hr
Fe[urine]48 hr, geometric mean (% geometric CV) ([2]; moderate renal impairment): 5.5% and 5.5 (53.2) %
Tmax (median) ([2]; moderate renal impairment): 78 min
AUC0-inf, geometric least squares mean ([2]; severe renal impairment): 2820 ng·h/mL
Apparent terminal t1/2, geometric mean (% geometric CV) ([2]; severe renal impairment): 131 (10.0) hr
CL/F, geometric least squares mean ([2]; severe renal impairment): 35.5 L/h
CLR, geometric mean (% geometric CV) ([2]; severe renal impairment): 1.9 (30.9) L/hr
Cmax, geometric least squares mean ([2]; severe renal impairment): 152 ng/mL
Fe[urine]48 hr, geometric mean (% geometric CV) ([2]; severe renal impairment): 2.1% and 2.1 (57.6) %
Tmax (median) ([2]; severe renal impairment): 30 min
CL/F increase per one mL/min/1.73 m^2 increase in eGFR ([2]; slope of linear regression): ~0.8%
AUC0-inf, geometric least squares mean [3, 6]: 1440 ng·h/mL
CL/F, geometric mean (% geometric CV) [3, 6]: 68.3 (36.0%) L/hr
Cmax, geometric least squares mean [3, 6]: 125 ng/mL
AUC0-inf, geometric least squares mean ([3]; moderate hepatic impairment): 1820 ng·h/mL
Apparent terminal t1/2, geometric mean (% geometric CV) ([3]; moderate hepatic impairment): 94.5 (8.88%) hr
CL/F, geometric mean (% geometric CV) ([3]; moderate hepatic impairment): 56.0 (31.2%) L/hr
Cmax, geometric least squares mean ([3]; moderate hepatic impairment): 168 ng/mL

— patent publication US20230218624A1 (Urovant Sciences GmbH, priority 2017, published 2023)
